The record followed here is ChEMBL document CHEMBL6078722, “Structure-based development of N-Arylindole derivatives as Pks13 inhibitors against Mycobacterium tuberculosis” (Eur J Med Chem, 2025).

Series [1] deals with Mycobacterium tuberculosis. The experiment in a line: Antimicrobial activity against Mycobacterium tuberculosis H37Rv by MABA. The class given is functional.
The nature of series [2]: Metabolic stability in human liver microsomes assessed as half life. The series is classed as ADME, Microsome.
The nature of series [3]: Metabolic stability in human liver microsomes assessed as intrinsic clearance. Particulars: read-out: CLH. The series is classed as ADME, Microsome.
Series [4] is described as follows: Metabolic stability in human liver assessed as intrinsic clearance. The series is classed as ADME, tissue-based. The following applies: read-out: CLH.
The nature of series [5]: Metabolic stability in human liver microsomes assessed as compound remaining after 60 mins in presence of NADPH. The series is classed as ADME, Microsome. Particulars: read-out: Stability. In general terms: Liver microsomes are a subcellular fraction often used to study metabolism.
The test system of series [6] is Mycobacterium tuberculosis. The experiment in a line: Antimicrobial activity against Mycobacterium tuberculosis H37Rv by microdilution method. The series is classed as functional. (Broth dilution looks for growth in wells or tubes with falling amounts of substance.)
Series [7] deals with Mycobacterium tuberculosis. The experiment in a line: Antimicrobial activity against Mycobacterium tuberculosis H37Rv. The series is classed as functional.
Series [8] relates to Mycobacterium tuberculosis. Put plainly: Antimicrobial activity against Mycobacterium tuberculosis H37Rv incubated for 7 days by alamar blue microplate reader assay. The class given is functional. The following applies: 168 h, time 7 day. (Alamar Blue is a resazurin reagent that responds to reducing activity.)
Series [9] has as its system Mycobacterium tuberculosis. Put plainly: Antimicrobial activity against Mycobacterium tuberculosis H37Rv treated with compound diluted mouse serum at 1:8 to 1:64 serial dilution by MABA. The series is classed as functional, organism-based.
In series [10] the test system is Mycobacterium tuberculosis. The experiment in a line: Bacteriostatic activity against Mycobacterium tuberculosis. The series is classed as functional.

≈ marks a conversion by molar mass, not a printed value. Calls of active or inactive are those of the source.

Broadly, the MIC90 is an inhibitory concentration at the 90% level, which refers to growth in some studies and to a panel of isolates in others. Read a low MIC90 as higher susceptibility. What is called half-life is the time needed for the level to fall by half in the phase considered. `CC(=O)c1c(C)n(-c2ccc(Br)cc2)c2ccc(O)c(CN3CCCCC3)c12` yielded an MIC90 in series [1] of 0.28 µM (≈ 0.124 µg/mL). For the same compound, the half-life in [2] was 58 min. In addition, the microsomal CLint in series [3] was 23.9 µL/min/mg. Further, the CLint scaled in series [4] is 21.5 mL/min/kg. Moreover, in series [5], the remaining at 1 h was found to be 47.3%.
As usually defined, the MIC is the least concentration at which growth counts as inhibited. Lower therefore signals inhibition by little substance. Consider `COC(=O)c1c(NC(=O)c2c(F)c(F)c(F)c(F)c2F)sc2c1CCCCC2`, for which the lowest concentration to inhibit growth in series [6] (MIC) was 1 µM (≈ 0.419 µg/mL).
In turn, `CC(=O)c1cn(-c2cccnc2)c2ccc(O)c(CN3CCC3)c12` returned an MIC90 in [1] of 100 µM (≈ 32.1 µg/mL).
As to `COc1ccc(OC)c(-c2ccc(-c3cn(CCc4ccc(C(=O)N(C)C)cc4)nn3)cn2)c1`, the MIC in [7] came out at 0.25 µM (≈ 0.114 µg/mL).
In the case of `O=c1cc(-c2ccc(O)cc2)oc2ccc(O)c(CN3CCC3)c12`, in series [8], the MIC was 1.39 µM (≈ 0.449 µg/mL).
With `Cc1ccc(-n2cc(-c3nnco3)c3c(CN4CCC4)c(O)ccc32)s1`, the MIC90 in series [1] amounted to 3 µM (≈ 1.1 µg/mL).
Turning to `CC(=O)c1cn(-c2ccc(Br)s2)c2ccc(O)c(CN3CCCCC3)c12`, in [1], the MIC90 worked out at 0.58 µM (≈ 0.251 µg/mL).
In turn, `Oc1ccc2c(c(-c3nnco3)cn2-c2ccc(Br)cc2)c1CN1CCCC1` yielded an MIC90 in series [1] of 0.07 µM (≈ 0.0308 µg/mL). Besides, the half-life in series [2] is 65.5 min. Moreover, the microsomal CLint in series [3] was determined as 21.2 µL/min/mg. Also, the CLint scaled in [4] turned out to be 19 mL/min/kg. The remaining at 1 h in series [5] was 53%.
In series [1], `CC(=O)c1cn(-c2ccc(C)s2)c2ccc(O)c(CN3CCC3)c12` came in with an MIC90 of 0.37 µM (≈ 0.126 µg/mL).
For the compound `CC(=O)c1cn(-c2ncccn2)c2ccc(O)c(CN3CCC3)c12`, the MIC90 in series [1] is 99 µM (≈ 31.9 µg/mL).
In series [1], `CC(=O)c1cn(-c2ccc(Br)cc2)c2ccc(O)c(CN3CCC(F)CC3)c12` gave an MIC90 of 0.28 µM (≈ 0.125 µg/mL).
Same read-out and setting: as for `CC(=O)c1cn(-c2ccc(Br)s2)c2ccc(O)c(CN3CCC3)c12`, the figure is 0.62 µM (≈ 0.251 µg/mL); as for `Oc1ccc2c(c(-c3nnco3)cn2-c2ccc(Br)s2)c1CN1CCC1`, 1 µM (≈ 0.431 µg/mL).
For `Oc1ccc2c(c(-c3nnco3)cn2-c2ccc(Br)cc2)c1CN1CCC1`, in series [1], the MIC90 worked out at 0.07 µM (≈ 0.0298 µg/mL). Further, the half-life in [2] was found to be 100 min. For the same compound, the microsomal CLint in series [3] came out at 13.8 µL/min/mg. Further, the CLint scaled in series [4] was 12.4 mL/min/kg. For the same compound, the remaining at 1 h in series [5] came to 61.7%. Besides, the outcome in series [9] was Active.
On to `CNC(=O)c1c(-c2ccc(O)cc2)oc2ccc(O)c(CC3CCNCC3)c12`, for which the MIC in series [10] came out at 0.06 µM (≈ 0.0228 µg/mL).
Regarding `O=c1cc(-c2ccccc2O)oc2ccc(O)c(CN3CCC3)c12`, in series [8], the MIC turned out to be 1.39 µM (≈ 0.449 µg/mL).
Take `CNC(=O)c1cn(-c2ccc(Br)s2)c2ccc(O)c(CN3CCCCC3)c12`: the MIC90 in series [1] amounted to 9 µM (≈ 4.04 µg/mL).
`CC(=O)c1ccc(-n2cc(C(C)=O)c3c(CN4CCC4)c(O)ccc32)s1` came in with an MIC90 in series [1] of 5 µM (≈ 1.84 µg/mL).
Same read-out and setting: as for `Oc1ccc2c(c(-c3nnco3)cn2-c2ccc(Br)cc2)c1CN1CCOCC1`, the figure is 4 µM (≈ 1.82 µg/mL).
Regarding `CC(=O)c1cn(-c2ccc(Br)cc2)c2ccc(O)c(CN3CC(F)C3)c12`, the MIC90 in series [1] came to 1 µM (≈ 0.417 µg/mL).
Consider `CC(=O)c1c(C)n(-c2ccc(C3CCNCC3)cc2)c2ccc(O)c(CN3CCCCC3)c12`, for which the MIC90 in series [1] was 0.14 µM (≈ 0.0624 µg/mL). Moreover, the half-life in [2] came out at 20.7 min. Moreover, the microsomal CLint in [3] was 66.9 µL/min/mg. In series [4], the CLint scaled was found to be 60.2 mL/min/kg. For the same compound, the remaining at 1 h in series [5] was 11.3%.
`CC(=O)c1cn(-c2ccc(Br)cc2)c2ccc(O)c(CN3CCC3)c12` registered an MIC90 in series [1] of 0.08 µM (≈ 0.0319 µg/mL).
For `CC(=O)c1cn(-c2ccc(Br)cc2)c2ccc(O)c(CN3CCCC3)c12`, in series [1], the MIC90 is 0.3 µM (≈ 0.124 µg/mL).
Take `Oc1ccc2c(c(-c3nnco3)cn2-c2ccc(Br)cc2)c1CN1CC2(COC2)C1`: the MIC90 in series [1] came out at 1 µM (≈ 0.467 µg/mL).
`CCOC(=O)c1c(-c2ccccc2)oc2ccc(O)c(CN3CCC(C)CC3)c12` showed an MIC in series [7] of 2.3 µM (≈ 0.905 µg/mL).
`CC(=O)c1cn(-c2ccc(Br)cc2)c2ccc(O)c(CN3CCCCC3)c12` gave an MIC90 in series [1] of 0.07 µM (≈ 0.0299 µg/mL).
In series [1], `CC(=O)c1cn(-c2ccc(Br)s2)c2ccc(O)c(CN3CC4(COC4)C3)c12` had an MIC90 of 2 µM (≈ 0.895 µg/mL).
The same measure, in the same setting: as for `Oc1ccc2c(c(-c3nnco3)cn2-c2ccc(Br)s2)c1CN1CC2(COC2)C1`, the figure is 8 µM (≈ 3.79 µg/mL).
The compound `CC(=O)c1cn(-c2cnccn2)c2ccc(O)c(CN3CCC3)c12` came in with an MIC90 in series [1] of 199 µM (≈ 64.2 µg/mL).
Compound `CC(=O)c1cn(-c2ccc(-c3ccccc3)s2)c2ccc(O)c(CN3CCC3)c12` had an MIC90 in series [1] of 0.04 µM (≈ 0.0161 µg/mL). Also, in [2], the half-life was found to be 130 min. Moreover, the microsomal CLint in series [3] amounted to 10.7 µL/min/mg. Also, in [4], the CLint scaled turned out to be 9.6 mL/min/kg. In addition, in series [5], the remaining at 1 h is 68.6%.
As for `CC(=O)c1cn(-c2cccs2)c2ccc(O)c(CN3CCC3)c12`, in series [1], the MIC90 was 3 µM (≈ 0.979 µg/mL).
In [1], `Oc1ccc2c(c(-c3nnco3)cn2-c2ccc(Br)cc2)c1CN1CC(F)C1` came in with an MIC90 of 0.56 µM (≈ 0.248 µg/mL).
For the compound `Oc1ccc2c(c(-c3nnco3)cn2-c2ccc(Br)cc2)c1CN1CCCCC1`, in series [1], the MIC90 came out at 0.07 µM (≈ 0.0317 µg/mL). Moreover, the half-life in series [2] was 66 min. Further, in [3], the microsomal CLint came out at 21 µL/min/mg. Further, the CLint scaled in series [4] was determined as 18.9 mL/min/kg. Besides, the remaining at 1 h in [5] is 55%.
